In patent US12691141B2, “Use of micro- and nano-MgH2 compound particles in inhibition of leishmania infection and treatment of leishmaniasis” (SHANGHAI JIAO TONG UNIVERSITY, priority 2020, dated 2026):

Tests used:
[1] = tested on: Leishmania; assay: Cure time of skin/mucosal ulcer and impaired organ function caused by Leishmania; conditions: in vivo
[2] = tested on: Leishmaniabraziliensis; assay: Skin ulceration of Leishmania-infected hamsters; type: in vivo, hamsters (Mesocricetus auratus); conditions: 200 μg/mL subcutaneous injection at ulcer site 100 μL/mouse/d
Protocol: 2) Research on the treatment with micro- and nano-MgH2 compound particles: • 2.1 MgH2 compound particles with a particle diameter of 100 nm to 1,000 nm were first dissolved in a phosphoric acid buffer to prepare 5 concentration groups (1 mg/100 uL, 3 mg/100 uL, 5 mg/100 uL, 10 mg/100 uL, and 15 mg/100 uL). • 2.2 A Leishmaniabraziliensis-infected mouse model was established, which was specified as follows:
Various hamsters (Mesocricetus auratus) were selected, the lower dorsal margin was shaved, and Leishmania (1 million/100 uL/mouse) was injected subcutaneously at 2 cm of an upper margin of a tail. […] MgH2 compound particles (with a particle size of 100 nm to 1,000 nm) at different concentrations (100 uL) were smeared to a skin lesion of an infected hamster once every 24 h continuously for 14 d. An untreated group (namely, a blank control group, infected mice were not treated) and an antimony preparation subcutaneous injection group (sodium antimony gluconate (5-valent antimony preparation, 200 μg/mL) was injected subcutaneously at an ulcer site 100 μL/mouse/d) were set.

[3] = existing studies; cited from earlier work

sodium antimony gluconate [Antimony preparation]
cure time [1]: 1 to 3 months
Healing rate of a skin ulceration wound ([2]; day 0): 0%
Healing rate of a skin ulceration wound ([2]; day 3): 15.3 ± 2.0%
Healing rate of a skin ulceration wound ([2]; day 7): 75.2 ± 4.8%
Healing rate of a skin ulceration wound ([2]; day 14): 88.9 ± 5.1%
side effects [3]: serious liver and kidney function damage
